Measurements: ChEMBL document CHEMBL5678818, “Discovery of potent SOS1 inhibitors that block RAS activation via disruption of the RAS-SOS1 interaction” (Proc Natl Acad Sci U S A, 2019)

Experiments:
[1] = target: Fibroblast growth factor receptor 2 (Homo sapiens) (UniProt P21802); assay: Inhibition of FGFR2 (unknown origin) assessed as residual activity at 1000 nM by KINOMEscan analysis relative to control
[2] = target: T1, Cyclin-dependent kinase-like 5 (Homo sapiens) (UniProt O76039); assay: Inhibition of CDKL5 (unknown origin) assessed as residual activity at 1000 nM by KINOMEscan analysis relative to control
T1 sequence (whole entry): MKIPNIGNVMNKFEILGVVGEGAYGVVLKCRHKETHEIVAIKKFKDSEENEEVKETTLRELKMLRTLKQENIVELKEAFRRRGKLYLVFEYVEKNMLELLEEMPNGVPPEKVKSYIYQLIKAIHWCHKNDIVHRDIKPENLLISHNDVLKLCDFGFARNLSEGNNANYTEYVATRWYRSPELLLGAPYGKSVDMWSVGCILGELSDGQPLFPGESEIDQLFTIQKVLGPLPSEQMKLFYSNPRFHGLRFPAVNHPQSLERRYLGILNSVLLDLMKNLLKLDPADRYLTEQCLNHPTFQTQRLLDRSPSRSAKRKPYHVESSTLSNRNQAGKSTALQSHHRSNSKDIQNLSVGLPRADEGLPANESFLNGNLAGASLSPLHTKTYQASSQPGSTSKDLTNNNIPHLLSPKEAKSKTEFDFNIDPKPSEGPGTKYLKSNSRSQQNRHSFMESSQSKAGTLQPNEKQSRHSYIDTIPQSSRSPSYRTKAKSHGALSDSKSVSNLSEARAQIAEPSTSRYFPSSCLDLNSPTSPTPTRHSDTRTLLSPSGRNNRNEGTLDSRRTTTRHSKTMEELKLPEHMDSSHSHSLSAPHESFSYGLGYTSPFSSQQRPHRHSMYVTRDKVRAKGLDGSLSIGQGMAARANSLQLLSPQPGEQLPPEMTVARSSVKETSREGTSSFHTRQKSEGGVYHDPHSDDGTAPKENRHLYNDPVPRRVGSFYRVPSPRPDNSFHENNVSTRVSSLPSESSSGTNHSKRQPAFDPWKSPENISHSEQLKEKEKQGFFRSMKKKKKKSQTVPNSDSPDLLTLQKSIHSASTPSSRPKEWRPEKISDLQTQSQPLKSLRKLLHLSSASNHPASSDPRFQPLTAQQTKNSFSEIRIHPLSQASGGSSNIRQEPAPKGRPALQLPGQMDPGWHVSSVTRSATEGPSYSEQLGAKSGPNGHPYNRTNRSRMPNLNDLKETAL

[3] = system: Hepatocyte growth factor receptor (Homo sapiens), P08581 [Y1235D]; assay: Inhibition of MET Y1235D mutant (unknown origin) assessed as residual activity at 1000 nM by KINOMEscan analysis relative to control
[4] = target: T2, Serine/threonine-protein kinase BRSK2 (Homo sapiens) (UniProt Q8IWQ3); assay: Inhibition of BRSK2 (unknown origin) assessed as residual activity at 1000 nM by KINOMEscan analysis relative to control
T2 sequence (whole entry): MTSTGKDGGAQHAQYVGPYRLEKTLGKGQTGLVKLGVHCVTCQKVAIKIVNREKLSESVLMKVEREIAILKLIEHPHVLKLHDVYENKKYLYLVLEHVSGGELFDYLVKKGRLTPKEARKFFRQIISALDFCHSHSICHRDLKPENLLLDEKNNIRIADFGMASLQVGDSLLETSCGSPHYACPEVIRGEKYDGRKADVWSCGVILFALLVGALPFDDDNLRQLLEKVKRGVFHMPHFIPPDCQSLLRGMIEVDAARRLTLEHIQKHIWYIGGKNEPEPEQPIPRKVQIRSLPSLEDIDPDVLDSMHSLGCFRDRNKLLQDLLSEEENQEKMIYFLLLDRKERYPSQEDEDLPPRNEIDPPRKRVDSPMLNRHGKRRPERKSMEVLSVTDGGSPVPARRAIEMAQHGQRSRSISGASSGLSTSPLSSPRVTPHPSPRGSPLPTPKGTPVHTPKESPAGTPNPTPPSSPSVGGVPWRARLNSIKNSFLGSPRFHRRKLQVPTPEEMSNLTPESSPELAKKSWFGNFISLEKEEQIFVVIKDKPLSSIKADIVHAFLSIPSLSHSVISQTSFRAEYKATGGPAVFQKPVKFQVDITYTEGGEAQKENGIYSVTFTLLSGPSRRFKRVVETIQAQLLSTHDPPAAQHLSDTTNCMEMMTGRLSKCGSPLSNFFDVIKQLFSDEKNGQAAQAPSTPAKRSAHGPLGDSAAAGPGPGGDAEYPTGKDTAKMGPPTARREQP

[5] = system: Tyrosine-protein kinase ABL1 (Homo sapiens), P00519 [Q252H]; assay: Inhibition of phosphorylated ABL1 Q252H mutant (unknown origin) assessed as residual activity at 1000 nM by KINOMEscan analysis relative to control
[6] = target: Cyclin-dependent kinase 11B (Homo sapiens) (UniProt P21127); assay: Inhibition of CDK11 (unknown origin) assessed as residual activity at 1000 nM by KINOMEscan analysis relative to control
[7] = target: Serine/threonine-protein kinase 33 (Homo sapiens) (UniProt Q9BYT3); assay: Inhibition of STK33 (unknown origin) assessed as residual activity at 1000 nM by KINOMEscan analysis relative to control
[8] = target: Receptor-type tyrosine-protein kinase FLT3 (Homo sapiens) (UniProt P36888); assay: Inhibition of FLT3 (unknown origin) assessed as residual activity at 1000 nM by KINOMEscan analysis relative to control
[9] = target: Vascular endothelial growth factor receptor 2 (Homo sapiens) (UniProt P35968); assay: Inhibition of VEGFR2 (unknown origin) assessed as residual activity at 1000 nM by KINOMEscan analysis relative to control
Sequence of Vascular endothelial growth factor receptor 2 (Homo sapiens) (P35968 whole entry): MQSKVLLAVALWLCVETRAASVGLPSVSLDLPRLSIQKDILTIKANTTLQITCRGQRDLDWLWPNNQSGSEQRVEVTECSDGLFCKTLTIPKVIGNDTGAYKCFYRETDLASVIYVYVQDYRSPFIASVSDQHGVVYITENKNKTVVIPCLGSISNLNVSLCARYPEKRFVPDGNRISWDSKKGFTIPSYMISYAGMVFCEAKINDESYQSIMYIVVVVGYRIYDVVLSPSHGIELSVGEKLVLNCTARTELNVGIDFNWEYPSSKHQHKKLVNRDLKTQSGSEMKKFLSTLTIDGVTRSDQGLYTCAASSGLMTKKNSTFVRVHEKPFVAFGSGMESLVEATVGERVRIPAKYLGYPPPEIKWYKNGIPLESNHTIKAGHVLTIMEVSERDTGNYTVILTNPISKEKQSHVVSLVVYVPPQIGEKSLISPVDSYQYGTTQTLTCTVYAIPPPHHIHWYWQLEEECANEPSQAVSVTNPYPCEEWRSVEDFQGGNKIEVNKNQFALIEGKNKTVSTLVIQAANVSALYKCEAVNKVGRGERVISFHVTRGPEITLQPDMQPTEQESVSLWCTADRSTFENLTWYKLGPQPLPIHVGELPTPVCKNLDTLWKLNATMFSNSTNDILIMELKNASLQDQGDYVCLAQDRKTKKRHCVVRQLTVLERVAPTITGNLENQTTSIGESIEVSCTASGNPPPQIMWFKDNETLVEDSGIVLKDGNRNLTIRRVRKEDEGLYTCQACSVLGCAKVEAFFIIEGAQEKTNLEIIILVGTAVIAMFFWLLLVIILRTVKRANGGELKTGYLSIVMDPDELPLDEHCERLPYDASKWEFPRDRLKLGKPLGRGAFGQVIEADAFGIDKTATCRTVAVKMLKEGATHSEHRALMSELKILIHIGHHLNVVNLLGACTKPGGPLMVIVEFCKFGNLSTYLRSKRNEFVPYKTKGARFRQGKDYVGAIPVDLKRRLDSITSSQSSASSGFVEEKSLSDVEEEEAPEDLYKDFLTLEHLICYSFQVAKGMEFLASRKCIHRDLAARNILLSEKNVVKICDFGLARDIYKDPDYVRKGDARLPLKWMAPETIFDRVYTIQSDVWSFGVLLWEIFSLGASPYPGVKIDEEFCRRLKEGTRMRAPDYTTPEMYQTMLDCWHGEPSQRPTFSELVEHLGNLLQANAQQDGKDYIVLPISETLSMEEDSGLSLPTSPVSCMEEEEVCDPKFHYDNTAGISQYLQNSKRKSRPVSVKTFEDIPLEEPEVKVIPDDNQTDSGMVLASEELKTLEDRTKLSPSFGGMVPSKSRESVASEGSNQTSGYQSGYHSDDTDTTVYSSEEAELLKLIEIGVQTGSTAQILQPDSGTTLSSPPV

Sequence of Serine/threonine-protein kinase 33 (Homo sapiens) (Q9BYT3 whole entry, looked up): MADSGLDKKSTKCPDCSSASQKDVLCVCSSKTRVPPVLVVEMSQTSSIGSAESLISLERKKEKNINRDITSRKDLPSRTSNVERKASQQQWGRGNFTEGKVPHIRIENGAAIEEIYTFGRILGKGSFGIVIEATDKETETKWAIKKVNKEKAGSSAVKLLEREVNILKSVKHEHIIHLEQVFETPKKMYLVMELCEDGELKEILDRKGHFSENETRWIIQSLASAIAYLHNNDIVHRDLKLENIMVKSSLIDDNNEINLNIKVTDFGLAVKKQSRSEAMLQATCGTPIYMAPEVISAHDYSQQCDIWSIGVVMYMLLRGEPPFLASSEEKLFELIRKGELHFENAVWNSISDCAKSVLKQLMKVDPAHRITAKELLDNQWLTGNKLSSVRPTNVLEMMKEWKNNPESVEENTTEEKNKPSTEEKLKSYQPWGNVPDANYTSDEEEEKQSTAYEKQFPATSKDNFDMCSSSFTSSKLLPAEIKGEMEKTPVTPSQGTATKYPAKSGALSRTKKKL
Sequence of Fibroblast growth factor receptor 2 (Homo sapiens) (P21802 22-821 limits assumed): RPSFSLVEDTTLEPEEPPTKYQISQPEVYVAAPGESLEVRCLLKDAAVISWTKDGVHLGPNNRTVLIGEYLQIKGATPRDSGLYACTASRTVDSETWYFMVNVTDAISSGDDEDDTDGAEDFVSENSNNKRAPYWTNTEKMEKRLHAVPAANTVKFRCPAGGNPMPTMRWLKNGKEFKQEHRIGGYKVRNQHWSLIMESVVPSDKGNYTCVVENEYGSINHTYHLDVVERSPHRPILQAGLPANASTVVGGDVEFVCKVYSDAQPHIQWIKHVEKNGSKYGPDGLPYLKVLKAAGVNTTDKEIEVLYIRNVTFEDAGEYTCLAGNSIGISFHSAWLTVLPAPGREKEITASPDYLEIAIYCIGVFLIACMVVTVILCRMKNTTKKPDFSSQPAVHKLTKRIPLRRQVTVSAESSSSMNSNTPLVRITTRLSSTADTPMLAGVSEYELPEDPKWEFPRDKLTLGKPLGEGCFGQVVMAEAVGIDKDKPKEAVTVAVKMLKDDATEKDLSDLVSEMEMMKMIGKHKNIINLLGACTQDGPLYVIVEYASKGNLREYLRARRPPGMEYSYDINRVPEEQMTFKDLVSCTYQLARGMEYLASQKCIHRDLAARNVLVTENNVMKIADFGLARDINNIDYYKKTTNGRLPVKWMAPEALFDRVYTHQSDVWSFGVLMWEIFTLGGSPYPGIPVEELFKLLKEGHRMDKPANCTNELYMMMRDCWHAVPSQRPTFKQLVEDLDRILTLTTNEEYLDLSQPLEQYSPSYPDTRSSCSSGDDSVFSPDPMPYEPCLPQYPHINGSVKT
Sequence of Receptor-type tyrosine-protein kinase FLT3 (Homo sapiens) (P36888 whole entry): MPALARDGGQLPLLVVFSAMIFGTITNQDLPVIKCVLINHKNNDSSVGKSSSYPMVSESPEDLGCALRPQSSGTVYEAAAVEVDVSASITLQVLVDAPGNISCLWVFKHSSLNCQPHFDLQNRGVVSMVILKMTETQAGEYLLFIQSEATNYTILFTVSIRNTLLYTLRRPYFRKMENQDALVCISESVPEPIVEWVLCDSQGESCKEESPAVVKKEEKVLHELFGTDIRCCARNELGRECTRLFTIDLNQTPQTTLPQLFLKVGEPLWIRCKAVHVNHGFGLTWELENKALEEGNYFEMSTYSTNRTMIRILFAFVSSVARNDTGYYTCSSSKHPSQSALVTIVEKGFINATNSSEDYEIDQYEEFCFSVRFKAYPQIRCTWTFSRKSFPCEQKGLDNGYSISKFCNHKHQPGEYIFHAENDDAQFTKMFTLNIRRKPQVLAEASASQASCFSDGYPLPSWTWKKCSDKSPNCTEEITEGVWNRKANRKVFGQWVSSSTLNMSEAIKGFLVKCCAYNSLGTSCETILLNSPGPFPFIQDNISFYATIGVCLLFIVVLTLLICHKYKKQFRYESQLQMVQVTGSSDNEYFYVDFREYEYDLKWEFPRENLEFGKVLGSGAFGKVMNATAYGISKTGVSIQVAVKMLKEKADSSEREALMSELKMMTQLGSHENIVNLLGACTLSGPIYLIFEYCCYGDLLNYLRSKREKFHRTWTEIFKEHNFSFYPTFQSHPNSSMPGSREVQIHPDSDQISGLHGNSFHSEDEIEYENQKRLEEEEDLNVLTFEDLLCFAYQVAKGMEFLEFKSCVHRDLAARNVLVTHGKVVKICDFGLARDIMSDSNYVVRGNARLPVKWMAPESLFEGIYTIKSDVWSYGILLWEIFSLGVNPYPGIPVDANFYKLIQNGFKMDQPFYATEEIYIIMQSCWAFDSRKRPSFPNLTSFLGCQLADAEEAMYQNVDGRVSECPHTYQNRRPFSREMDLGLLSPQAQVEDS
Sequence of Cyclin-dependent kinase 11B (Homo sapiens) (P21127 whole entry): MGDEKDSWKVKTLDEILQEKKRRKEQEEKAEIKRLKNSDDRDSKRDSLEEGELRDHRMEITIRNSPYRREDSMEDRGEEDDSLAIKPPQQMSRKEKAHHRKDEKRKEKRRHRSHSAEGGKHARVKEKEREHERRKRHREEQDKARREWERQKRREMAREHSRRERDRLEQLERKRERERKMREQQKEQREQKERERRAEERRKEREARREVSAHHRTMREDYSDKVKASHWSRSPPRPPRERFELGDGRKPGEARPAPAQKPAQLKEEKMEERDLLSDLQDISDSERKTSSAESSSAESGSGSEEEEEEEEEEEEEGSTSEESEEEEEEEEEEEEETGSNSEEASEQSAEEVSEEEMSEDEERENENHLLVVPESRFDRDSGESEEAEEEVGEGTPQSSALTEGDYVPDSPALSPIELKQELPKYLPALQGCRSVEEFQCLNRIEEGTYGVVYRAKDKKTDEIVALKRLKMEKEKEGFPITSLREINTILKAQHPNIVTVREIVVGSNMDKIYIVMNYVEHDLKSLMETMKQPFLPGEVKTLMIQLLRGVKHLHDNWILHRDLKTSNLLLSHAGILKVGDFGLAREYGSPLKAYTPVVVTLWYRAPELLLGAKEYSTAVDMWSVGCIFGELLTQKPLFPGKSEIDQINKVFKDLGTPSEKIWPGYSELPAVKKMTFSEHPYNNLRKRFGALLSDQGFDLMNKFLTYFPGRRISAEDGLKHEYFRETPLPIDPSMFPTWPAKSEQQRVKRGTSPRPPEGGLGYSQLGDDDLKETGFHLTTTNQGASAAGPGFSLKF

SMILES	Activity [1]	Activity [2]	Activity [3]	Activity [4]	Activity [5]	Activity [6]	Activity [7]	Activity [8]	Activity [9]
COc1cc2nc(C)nc(N[C@H](C)c3cccc(-c4cn[nH]c4)c3)c2cc1OC	67%	82%	78%	85%	95%	100%	100%	78%	100%
COc1cc2ncnc(N[C@H](C)c3cccc4ccccc34)c2cc1OC	100%	94%	100%	78%	92%	84%	68%	93%	78%
